In ChEMBL document CHEMBL1201862, “PubChem BioAssay data set” (2004):
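Cells were grown in 96-well plates and exposed to each compound for 48 hours at five concentrations; endpoints were interpolated linearly between bracketing concentrations, or set to the highest concentration if not reached. The concentration for 50% growth inhibition is given as GI50.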 Activity calls are given as the source filed them. Cut-off read from the data, not from the text of the source: active = GI50 up to about 1.1 µM and inactive = higher.

Columns and labels:
Experiment in all cases: DTP human tumour cell line panel, 48 h
[1] = system: EKVX
[2] = system: MDA-MB-231
[3] = system: SNB-75
[4] = system: UACC-62
[5] = system: TK-10
[6] = system: NCI-H522
[7] = system: OVCAR-4
[8] = system: SW-620
[9] = system: SR
[10] = system: NCI/ADR-RES
[11] = system: CAKI-1
[12] = system: Hs-578T
[13] = system: RXF 393
[14] = system: BT-549
[15] = system: KM12
[16] = system: HCT-15
[17] = system: LOX IMVI
[18] = system: UO-31
[19] = system: HL-60
[20] = system: CCRF-CEM

Measured: GI50

NCCSc1nc(-c2ccccc2)c(-c2ccccc2)o1
> 100 µM: [16]
inactive: [1] > 100 µM | [2] > 100 µM | [3] 21 µM | [4] > 100 µM | [5] 15.3 µM | [6] 29.6 µM | [7] 46.7 µM | [8] > 100 µM | [9] 7.38 µM | [10] > 100 µM | [11] > 100 µM | [12] > 100 µM | [13] 42.2 µM | [14] > 100 µM | [15] > 100 µM | [17] > 100 µM | [18] > 100 µM

O=c1c2cc([N+](=O)[O-])cnc2sn1-c1ccc([N+](=O)[O-])cc1
inactive: [19] 26 µM | [1] 40.3 µM | [2] 19.9 µM | [3] 38.1 µM | [4] 66.4 µM | [5] > 100 µM | [6] 7.28 µM | [7] 27.7 µM | [8] 32.1 µM | [9] 22.1 µM | [10] 28.9 µM | [12] 29.2 µM | [14] 40 µM | [15] 26.4 µM | [20] 34.8 µM | [17] 18.5 µM | [18] 52 µM
28.5 µM: [16]

COc1ccccc1/C=C/c1ccnc2ccccc12
12.3 µM: [16]
inactive: [19] 7.64 µM | [1] 11 µM | [2] 16.1 µM | [3] 3.37 µM | [4] 11.7 µM | [5] 16.8 µM | [7] 12.8 µM | [8] 13.8 µM | [9] 12.8 µM | [10] 11.3 µM | [11] 14.6 µM | [12] 14.7 µM | [14] 10.9 µM | [15] 12.3 µM | [20] 14.2 µM | [17] 16.3 µM

Nc1nc(Nc2ccccc2)sc1C(=O)c1ccco1
12.2 µM: [16]
inactive: [19] 14.1 µM | [1] 15.3 µM | [2] 34.7 µM | [3] 15.1 µM | [4] 20.8 µM | [5] 14.2 µM | [7] 19.9 µM | [8] 21.2 µM | [9] 5.97 µM | [10] 23.9 µM | [12] 13.3 µM | [13] 14.2 µM | [14] 23.2 µM | [15] 11 µM | [20] 3.62 µM | [17] 15.9 µM | [18] 12.1 µM

CN(C)c1ccc(/C=C(\NC(=O)c2ccccc2)c2nc3ccccc3c(=O)o2)cc1
inactive: [19] > 100 µM | [1] > 100 µM | [2] > 100 µM | [3] > 100 µM | [4] > 100 µM | [5] > 100 µM | [6] 46.7 µM | [7] > 100 µM | [8] > 100 µM | [10] > 100 µM | [11] > 100 µM | [12] > 100 µM | [13] > 100 µM | [14] > 100 µM | [15] > 100 µM | [20] > 100 µM | [17] > 100 µM | [18] > 100 µM
> 100 µM: [16]

COc1c(OC)c(OC)c2c(=O)c(OC)c(-c3ccc4c(c3)OCO4)oc2c1OC
78.5 µM: [16]
inactive: [19] 11.6 µM | [1] 82.8 µM | [2] > 100 µM | [3] 65.3 µM | [4] > 100 µM | [5] > 100 µM | [6] > 100 µM | [7] > 100 µM | [8] > 100 µM | [10] 86.9 µM | [11] > 100 µM | [12] > 100 µM | [13] > 100 µM | [14] > 100 µM | [15] > 100 µM | [20] 23.8 µM | [17] > 100 µM | [18] 57.8 µM
